Experimental data as given in ChEMBL document CHEMBL3627608, “Crystal structures of human RIP2 kinase catalytic domain complexed with ATP-competitive inhibitors: Foundations for understanding inhibitor selectivity” (Bioorg Med Chem, 2015).

What was measured:
[1] = target: T1, Ephrin type-B receptor 2 (Homo sapiens) (UniProt P29323); assay: Inhibition of EPHB2 (unknown origin) at 10 uM after 120 mins P33 radiolabeled kinase activity assay
T1 sequence (whole entry): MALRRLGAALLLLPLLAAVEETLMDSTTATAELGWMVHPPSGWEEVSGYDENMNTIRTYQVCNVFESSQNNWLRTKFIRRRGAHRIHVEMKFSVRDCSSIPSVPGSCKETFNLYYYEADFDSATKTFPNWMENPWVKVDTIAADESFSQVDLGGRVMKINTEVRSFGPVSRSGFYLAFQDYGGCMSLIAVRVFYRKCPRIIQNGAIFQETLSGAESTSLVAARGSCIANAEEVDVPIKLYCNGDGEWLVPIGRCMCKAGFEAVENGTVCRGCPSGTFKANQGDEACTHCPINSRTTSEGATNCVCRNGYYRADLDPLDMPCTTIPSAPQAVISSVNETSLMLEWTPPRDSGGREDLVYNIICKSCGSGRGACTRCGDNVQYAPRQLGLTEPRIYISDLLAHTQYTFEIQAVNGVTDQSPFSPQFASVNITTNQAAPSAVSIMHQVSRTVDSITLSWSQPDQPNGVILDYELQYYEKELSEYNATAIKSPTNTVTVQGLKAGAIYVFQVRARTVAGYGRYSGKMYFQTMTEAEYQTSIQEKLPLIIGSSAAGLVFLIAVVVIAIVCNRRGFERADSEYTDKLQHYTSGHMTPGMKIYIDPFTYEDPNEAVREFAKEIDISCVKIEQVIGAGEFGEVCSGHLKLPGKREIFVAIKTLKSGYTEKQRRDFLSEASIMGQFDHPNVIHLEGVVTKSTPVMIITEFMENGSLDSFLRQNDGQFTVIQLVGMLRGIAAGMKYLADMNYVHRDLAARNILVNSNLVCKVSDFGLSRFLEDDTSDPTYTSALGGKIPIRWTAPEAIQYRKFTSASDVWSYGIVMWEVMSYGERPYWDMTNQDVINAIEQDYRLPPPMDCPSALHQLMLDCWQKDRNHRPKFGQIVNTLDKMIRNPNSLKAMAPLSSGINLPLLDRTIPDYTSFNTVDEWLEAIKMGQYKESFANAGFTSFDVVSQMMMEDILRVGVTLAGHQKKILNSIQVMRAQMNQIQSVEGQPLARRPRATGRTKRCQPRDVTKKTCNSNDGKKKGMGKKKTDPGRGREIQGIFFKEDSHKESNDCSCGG

[2] = target: Fibroblast growth factor receptor 4 (Homo sapiens) (UniProt P22455); assay: Inhibition of FGFR4 (unknown origin) at 10 uM after 120 mins P33 radiolabeled kinase activity assay
[3] = target: Angiopoietin-1 receptor (Homo sapiens) (UniProt Q02763); assay: Inhibition of TIE2 (unknown origin) at 10 uM after 120 mins P33 radiolabeled kinase activity assay
[4] = target: T2, Tyrosine-protein kinase Mer (Homo sapiens) (UniProt Q12866); assay: Inhibition of c-MER (unknown origin) at 10 uM after 120 mins P33 radiolabeled kinase activity assay
T2 sequence (whole entry): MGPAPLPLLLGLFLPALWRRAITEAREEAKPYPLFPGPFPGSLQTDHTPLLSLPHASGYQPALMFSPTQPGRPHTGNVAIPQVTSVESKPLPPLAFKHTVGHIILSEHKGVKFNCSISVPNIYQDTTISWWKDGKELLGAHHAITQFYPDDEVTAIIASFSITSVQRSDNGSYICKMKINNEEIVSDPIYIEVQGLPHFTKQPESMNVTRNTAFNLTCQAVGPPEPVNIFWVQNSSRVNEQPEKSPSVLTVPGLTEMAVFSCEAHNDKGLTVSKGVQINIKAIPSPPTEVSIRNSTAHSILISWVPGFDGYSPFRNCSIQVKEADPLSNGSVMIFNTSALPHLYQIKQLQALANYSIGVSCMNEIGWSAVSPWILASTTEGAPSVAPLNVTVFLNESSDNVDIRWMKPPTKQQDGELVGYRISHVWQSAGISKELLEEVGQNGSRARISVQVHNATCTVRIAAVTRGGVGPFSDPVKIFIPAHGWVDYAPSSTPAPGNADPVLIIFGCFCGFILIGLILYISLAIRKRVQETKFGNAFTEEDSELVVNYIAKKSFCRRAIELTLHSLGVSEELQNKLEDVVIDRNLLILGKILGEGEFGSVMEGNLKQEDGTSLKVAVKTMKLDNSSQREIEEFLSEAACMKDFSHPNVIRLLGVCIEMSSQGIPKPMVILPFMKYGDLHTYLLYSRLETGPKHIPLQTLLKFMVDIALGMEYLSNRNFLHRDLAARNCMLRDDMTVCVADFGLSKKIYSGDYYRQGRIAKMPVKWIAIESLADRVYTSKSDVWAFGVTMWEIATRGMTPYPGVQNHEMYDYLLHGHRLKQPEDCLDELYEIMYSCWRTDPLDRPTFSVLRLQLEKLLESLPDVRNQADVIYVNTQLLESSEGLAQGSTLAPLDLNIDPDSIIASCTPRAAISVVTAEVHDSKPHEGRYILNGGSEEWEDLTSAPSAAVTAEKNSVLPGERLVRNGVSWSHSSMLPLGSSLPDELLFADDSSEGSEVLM

Chain of Angiopoietin-1 receptor (Homo sapiens) (Q02763 whole entry): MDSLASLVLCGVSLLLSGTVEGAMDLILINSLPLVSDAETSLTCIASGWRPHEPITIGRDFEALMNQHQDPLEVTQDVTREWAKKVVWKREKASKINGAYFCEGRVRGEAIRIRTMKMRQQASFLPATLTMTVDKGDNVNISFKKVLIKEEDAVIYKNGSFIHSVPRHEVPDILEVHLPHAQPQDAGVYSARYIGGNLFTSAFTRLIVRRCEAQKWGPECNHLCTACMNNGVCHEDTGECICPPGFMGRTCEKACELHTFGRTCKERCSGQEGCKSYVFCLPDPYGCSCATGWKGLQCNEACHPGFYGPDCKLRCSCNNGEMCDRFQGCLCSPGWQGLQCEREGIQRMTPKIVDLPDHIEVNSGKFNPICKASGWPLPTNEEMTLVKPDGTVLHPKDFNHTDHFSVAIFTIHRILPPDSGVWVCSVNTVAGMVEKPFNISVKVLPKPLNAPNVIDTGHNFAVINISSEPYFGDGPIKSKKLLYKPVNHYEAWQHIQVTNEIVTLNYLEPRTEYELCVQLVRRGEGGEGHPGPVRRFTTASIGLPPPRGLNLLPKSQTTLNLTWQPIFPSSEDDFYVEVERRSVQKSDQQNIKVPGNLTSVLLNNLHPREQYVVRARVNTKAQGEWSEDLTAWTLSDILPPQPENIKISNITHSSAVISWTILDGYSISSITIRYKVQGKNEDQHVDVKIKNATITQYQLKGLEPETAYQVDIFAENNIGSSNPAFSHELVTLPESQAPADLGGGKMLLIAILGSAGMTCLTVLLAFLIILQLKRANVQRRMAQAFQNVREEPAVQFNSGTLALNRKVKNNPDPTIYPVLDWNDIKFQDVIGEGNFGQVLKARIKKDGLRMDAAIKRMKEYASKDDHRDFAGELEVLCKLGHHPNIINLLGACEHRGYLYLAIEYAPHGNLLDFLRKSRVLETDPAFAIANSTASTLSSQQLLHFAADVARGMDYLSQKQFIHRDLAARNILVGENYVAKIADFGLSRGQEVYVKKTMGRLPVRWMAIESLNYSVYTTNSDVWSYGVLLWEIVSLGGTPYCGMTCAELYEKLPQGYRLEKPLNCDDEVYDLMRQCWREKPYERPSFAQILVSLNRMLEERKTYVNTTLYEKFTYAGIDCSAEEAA
Chain of Fibroblast growth factor receptor 4 (Homo sapiens) (P22455 22-802 limits assumed): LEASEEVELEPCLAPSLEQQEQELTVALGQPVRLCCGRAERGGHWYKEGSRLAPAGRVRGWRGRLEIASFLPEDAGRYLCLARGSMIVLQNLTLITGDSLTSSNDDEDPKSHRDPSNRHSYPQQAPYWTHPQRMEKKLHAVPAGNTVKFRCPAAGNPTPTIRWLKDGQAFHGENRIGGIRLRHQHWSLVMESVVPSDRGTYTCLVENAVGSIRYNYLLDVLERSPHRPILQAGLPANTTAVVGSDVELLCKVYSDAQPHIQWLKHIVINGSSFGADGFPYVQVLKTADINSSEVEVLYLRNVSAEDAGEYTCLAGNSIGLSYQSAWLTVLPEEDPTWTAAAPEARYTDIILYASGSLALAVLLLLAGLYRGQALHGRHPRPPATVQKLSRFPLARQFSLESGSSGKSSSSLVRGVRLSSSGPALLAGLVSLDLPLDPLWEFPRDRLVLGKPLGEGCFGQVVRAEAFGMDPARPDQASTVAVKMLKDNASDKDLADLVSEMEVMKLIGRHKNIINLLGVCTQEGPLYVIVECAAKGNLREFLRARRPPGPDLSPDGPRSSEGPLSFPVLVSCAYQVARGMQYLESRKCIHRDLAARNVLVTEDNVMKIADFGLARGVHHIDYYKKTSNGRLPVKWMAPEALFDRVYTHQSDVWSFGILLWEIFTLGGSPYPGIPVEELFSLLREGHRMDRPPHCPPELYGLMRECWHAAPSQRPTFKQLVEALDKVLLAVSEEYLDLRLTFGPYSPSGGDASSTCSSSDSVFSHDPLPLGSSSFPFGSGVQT

Row | Structure (SMILES) | inhibition [1] [%] | inhibition [2] [%] | inhibition [3] [%] | inhibition [4] [%]
1 | CS(=O)(=O)c1cccc(Nc2nccc(-c3sc(N4CCOCC4)nc3-c3cccc(NS(=O)(=O)c4c(F)cccc4F)c3)n2)c1 | 74.9 | 47.3 | 97 | 98.2
2 | COCCNC(=O)c1ccc2c(c1)nc(-c1cnc(-c3ccc(Cl)cc3)[nH]1)n2CCOC | 20.3 | 3.75 | 4.75 | 30.8
3 | CC(C)(C)c1cc(NC(=O)Nc2ccc(Oc3ccncc3)cc2)no1 | 97.7 | 73.3 | 69.2 | 77.9
